Data: patent publication US9586936B2, “Heteroarylamine derivatives as protein kinase inhibitors” (KOREA INSTITUTE OF SCIENCE AND TECHNOLOGY, priority 2014, dated 2017)

Legend:
Assay in all cases: kinase inhibition activity, full kinase panel
Type in all cases: biochemical
Settings in all cases: 1 μM of the compound; read-out: kinase activity inhibited (% inhibition)
[1] = target: (Homo sapiens, UniProt P09769)
Method: (§1) In order to measure the inhibition activity (% inhibition) of the compound of the present invention against protein kinases, a biochemical assay was conducted using a full kinase panel consisting of 340 kinases. As a representative compound of the present invention, N-(2,6-dichloro-3,5-dimethoxyphenyl)-1-(6-((4-(4-ethylpiperazin-1-yl)phenyl)amino)pyrimidin-4-yl)-1H-benz[d]imidazol-2-amine synthesized in Example 1 was used.
(§2) The kinases whose activity is inhibited by 50% or more when treated with 1 μM of the compound of Example 1 are listed in Table 1.

[2] = target: ABL2 (Homo sapiens, UniProt P42684)
Method: as §1, §2

[3] = target: ACK1 (Homo sapiens, UniProt Q07912)
Method: as §1, §2

[4] = target: ALK (Homo sapiens, UniProt Q9UM73)
Method: as §1, §2

[5] = target: BLK (Homo sapiens, UniProt P51451)
Sequence of BLK (P51451 whole entry): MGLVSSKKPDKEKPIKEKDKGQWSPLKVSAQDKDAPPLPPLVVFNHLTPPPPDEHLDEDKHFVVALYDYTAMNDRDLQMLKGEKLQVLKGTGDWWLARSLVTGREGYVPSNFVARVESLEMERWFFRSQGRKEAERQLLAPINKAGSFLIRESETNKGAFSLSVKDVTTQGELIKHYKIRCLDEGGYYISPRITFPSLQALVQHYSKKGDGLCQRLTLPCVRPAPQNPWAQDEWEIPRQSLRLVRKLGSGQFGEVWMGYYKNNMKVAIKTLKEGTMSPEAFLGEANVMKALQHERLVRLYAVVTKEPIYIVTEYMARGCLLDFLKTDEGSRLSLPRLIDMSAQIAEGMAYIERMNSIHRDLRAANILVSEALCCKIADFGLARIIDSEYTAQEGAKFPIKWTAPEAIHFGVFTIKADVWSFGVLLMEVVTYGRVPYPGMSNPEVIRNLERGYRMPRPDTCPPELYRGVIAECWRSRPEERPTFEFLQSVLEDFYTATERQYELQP
Method: as §1, §2

[6] = target: BMX (Homo sapiens, UniProt P51813)
Method: as §1, §2

[7] = target: DDR1 (Homo sapiens, UniProt Q08345)
Method: as §1, §2

[8] = target: DDR2 (Homo sapiens, UniProt Q16832)
Method: as §1, §2

[9] = target: DYRK1 (Homo sapiens, UniProt Q13627)
Method: as §1, §2

[10] = target: DYRK1B (Homo sapiens, UniProt Q9Y463)
Method: as §1, §2

[11] = target: DYRK2 (Homo sapiens, UniProt Q92630)
Method: as §1, §2

[12] = target: EGFR (Homo sapiens, UniProt P00533)
Method: as §1, §2

[13] = target: FGFR1 (Homo sapiens, UniProt P11362)
Method: as §1, §2

[14] = target: FGFR2 (Homo sapiens, UniProt P21802)
Method: as §1, §2

[15] = target: FGFR3 (Homo sapiens, UniProt P22607)
Method: as §1, §2

[16] = target: FGFR4 (Homo sapiens, UniProt P22455)
Sequence of FGFR4 (P22455 22-802): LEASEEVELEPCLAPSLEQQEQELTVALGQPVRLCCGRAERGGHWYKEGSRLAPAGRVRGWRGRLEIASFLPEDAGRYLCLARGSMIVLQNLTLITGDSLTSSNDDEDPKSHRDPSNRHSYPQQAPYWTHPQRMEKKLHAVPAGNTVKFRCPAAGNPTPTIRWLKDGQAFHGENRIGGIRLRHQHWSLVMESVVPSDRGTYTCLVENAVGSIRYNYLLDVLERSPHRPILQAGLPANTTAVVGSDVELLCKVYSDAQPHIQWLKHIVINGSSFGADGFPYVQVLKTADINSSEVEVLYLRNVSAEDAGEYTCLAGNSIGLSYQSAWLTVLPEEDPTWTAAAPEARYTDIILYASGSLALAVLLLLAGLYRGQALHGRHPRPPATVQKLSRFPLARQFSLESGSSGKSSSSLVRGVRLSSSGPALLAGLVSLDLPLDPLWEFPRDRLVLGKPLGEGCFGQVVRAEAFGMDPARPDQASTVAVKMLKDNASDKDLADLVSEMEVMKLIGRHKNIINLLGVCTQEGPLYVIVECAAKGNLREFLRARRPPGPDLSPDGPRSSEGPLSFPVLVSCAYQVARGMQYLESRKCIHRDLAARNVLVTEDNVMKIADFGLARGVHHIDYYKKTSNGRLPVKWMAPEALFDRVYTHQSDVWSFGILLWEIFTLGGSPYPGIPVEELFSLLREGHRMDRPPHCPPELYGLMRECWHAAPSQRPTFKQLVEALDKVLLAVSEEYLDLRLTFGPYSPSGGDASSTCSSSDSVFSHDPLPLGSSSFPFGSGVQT
Method: as §1, §2

[17] = target: FLT3 (Homo sapiens, UniProt P36888)
Method: as §1, §2

[18] = target: FLT4 (Homo sapiens, UniProt P35916)
Sequence of FLT4 (P35916 25-1363): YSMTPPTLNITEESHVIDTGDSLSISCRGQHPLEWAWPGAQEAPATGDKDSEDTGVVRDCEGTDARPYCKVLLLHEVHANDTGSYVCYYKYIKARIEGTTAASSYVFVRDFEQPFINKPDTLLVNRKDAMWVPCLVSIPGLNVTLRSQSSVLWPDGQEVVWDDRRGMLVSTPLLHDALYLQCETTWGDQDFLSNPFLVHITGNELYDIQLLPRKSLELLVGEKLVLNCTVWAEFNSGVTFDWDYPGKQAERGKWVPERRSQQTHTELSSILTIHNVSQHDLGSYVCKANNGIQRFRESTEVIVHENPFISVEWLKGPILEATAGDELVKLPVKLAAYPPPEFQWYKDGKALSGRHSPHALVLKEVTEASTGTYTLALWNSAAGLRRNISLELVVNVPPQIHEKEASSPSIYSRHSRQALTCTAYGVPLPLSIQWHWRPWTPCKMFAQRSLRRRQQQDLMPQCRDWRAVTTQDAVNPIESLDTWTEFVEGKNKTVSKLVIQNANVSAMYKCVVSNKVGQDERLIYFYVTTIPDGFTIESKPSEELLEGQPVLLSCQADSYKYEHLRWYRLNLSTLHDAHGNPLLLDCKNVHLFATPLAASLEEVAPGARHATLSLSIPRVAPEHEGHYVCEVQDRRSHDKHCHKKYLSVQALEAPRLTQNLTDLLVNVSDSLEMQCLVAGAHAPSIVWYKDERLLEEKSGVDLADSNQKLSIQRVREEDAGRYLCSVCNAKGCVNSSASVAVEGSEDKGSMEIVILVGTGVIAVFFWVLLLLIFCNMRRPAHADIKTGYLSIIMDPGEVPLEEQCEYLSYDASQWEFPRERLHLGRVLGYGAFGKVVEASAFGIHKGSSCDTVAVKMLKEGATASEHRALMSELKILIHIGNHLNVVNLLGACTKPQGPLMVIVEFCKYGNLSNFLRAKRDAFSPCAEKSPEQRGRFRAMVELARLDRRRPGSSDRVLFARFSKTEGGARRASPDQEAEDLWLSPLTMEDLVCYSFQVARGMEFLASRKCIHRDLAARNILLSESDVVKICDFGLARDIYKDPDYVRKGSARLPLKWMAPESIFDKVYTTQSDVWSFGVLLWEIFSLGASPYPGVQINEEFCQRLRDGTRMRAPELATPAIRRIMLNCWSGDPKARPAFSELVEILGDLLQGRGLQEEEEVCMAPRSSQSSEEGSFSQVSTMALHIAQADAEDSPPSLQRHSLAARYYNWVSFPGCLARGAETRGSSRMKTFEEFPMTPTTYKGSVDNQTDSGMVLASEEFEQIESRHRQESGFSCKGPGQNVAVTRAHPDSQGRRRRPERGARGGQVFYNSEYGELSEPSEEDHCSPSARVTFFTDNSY
Method: as §1, §2

[19] = target: FMS (Homo sapiens, UniProt P07333)
Method: as §1, §2

[20] = target: Fyn (Homo sapiens, UniProt P06241)
Sequence of Fyn (P06241 whole entry): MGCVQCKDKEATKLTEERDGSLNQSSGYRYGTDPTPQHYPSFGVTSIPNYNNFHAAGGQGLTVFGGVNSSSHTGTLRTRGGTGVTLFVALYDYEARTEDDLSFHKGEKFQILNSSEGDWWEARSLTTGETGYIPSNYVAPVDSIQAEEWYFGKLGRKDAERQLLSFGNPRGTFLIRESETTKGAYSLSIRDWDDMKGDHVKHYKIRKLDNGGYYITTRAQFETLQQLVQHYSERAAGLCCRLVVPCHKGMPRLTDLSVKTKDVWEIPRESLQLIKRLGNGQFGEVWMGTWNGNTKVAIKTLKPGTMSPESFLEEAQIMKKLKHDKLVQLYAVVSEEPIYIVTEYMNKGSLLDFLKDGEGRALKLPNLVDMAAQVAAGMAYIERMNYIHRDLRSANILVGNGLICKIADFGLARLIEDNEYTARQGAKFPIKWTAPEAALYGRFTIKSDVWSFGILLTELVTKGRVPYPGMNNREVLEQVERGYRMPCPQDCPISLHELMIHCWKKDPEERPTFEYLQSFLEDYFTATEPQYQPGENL
Method: as §1, §2

[21] = target: HER2 (Homo sapiens, UniProt P04626)
Method: as §1, §2

[22] = target: Hck (Homo sapiens, UniProt P08631)
Method: as §1, §2

[23] = target: LCK (Homo sapiens, UniProt P06239)
Sequence of LCK (P06239 whole entry): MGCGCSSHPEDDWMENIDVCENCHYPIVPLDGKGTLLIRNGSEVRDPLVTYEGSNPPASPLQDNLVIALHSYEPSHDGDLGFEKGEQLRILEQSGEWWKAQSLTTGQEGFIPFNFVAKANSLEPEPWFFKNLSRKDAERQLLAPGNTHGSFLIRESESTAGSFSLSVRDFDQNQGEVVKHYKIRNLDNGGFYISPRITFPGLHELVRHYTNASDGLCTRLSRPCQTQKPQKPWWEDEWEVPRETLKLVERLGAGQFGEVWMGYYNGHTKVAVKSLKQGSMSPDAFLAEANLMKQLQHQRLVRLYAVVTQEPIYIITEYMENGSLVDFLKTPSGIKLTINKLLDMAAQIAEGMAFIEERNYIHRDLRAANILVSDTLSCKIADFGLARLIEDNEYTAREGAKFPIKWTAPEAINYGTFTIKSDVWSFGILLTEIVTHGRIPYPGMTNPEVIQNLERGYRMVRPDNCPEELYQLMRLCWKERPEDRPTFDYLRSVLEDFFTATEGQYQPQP
Method: as §1, §2

[24] = target: LIMK1 (Homo sapiens, UniProt P53667)
Method: as §1, §2

[25] = target: LYN (Homo sapiens, UniProt P07948)
Sequence of LYN (P07948 whole entry): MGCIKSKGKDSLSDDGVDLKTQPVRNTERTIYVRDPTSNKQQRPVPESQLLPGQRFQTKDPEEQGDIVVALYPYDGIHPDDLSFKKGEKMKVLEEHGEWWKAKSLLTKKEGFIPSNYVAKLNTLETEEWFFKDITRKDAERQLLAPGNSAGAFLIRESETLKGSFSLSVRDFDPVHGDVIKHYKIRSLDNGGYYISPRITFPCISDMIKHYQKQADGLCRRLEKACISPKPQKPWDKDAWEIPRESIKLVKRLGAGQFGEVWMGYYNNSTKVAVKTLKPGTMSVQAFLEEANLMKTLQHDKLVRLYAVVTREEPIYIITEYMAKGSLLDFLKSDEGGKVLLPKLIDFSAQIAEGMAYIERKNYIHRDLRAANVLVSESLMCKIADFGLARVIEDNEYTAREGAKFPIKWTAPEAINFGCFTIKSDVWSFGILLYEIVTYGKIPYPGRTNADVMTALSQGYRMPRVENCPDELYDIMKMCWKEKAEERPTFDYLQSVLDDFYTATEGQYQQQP
Method: as §1, §2

[26] = target: LYN B (Homo sapiens, UniProt P07948)
Method: as §1, §2

[27] = target: MAP4K5 (Homo sapiens, UniProt Q9Y4K4)
Sequence of MAP4K5 (Q9Y4K4 whole entry): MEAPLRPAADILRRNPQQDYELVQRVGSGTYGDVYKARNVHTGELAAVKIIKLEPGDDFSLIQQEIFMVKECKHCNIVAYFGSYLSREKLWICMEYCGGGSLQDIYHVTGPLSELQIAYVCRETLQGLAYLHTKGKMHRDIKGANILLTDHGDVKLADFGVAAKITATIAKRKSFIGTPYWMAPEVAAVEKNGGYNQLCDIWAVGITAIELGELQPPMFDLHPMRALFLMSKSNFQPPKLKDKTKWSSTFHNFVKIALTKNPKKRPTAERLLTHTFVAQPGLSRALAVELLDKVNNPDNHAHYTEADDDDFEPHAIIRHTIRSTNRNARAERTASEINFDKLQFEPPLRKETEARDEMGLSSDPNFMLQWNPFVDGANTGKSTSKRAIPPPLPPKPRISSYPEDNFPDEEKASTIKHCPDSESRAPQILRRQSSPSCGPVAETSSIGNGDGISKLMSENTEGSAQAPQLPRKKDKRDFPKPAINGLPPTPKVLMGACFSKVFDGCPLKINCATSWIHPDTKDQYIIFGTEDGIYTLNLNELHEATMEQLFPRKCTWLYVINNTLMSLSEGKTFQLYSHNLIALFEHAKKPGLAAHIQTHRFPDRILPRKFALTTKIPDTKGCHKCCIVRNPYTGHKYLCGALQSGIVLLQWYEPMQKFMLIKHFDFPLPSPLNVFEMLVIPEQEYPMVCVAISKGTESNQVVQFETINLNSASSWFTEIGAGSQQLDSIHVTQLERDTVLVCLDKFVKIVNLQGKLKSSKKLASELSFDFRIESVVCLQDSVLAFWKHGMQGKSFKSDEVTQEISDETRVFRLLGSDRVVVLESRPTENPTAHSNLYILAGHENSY
Method: as §1, §2

[28] = target: MEKK2 (Homo sapiens, UniProt Q9Y2U5)
Method: as §1, §2

[29] = target: MEKK3 (Homo sapiens, UniProt Q99759)
Method: as §1, §2

[30] = target: ROS (Homo sapiens, UniProt P08922)
Method: as §1, §2

[31] = target: SIK1 (Homo sapiens, UniProt P57059)
Method: as §1, §2

[32] = target: SIK2 (Homo sapiens, UniProt Q9H0K1)
Method: as §1, §2

[33] = target: SIK3 (Homo sapiens, UniProt Q9Y2K2)
Method: as §1, §2

[34] = target: TAOK1 (Homo sapiens, UniProt Q7L7X3)
Method: as §1, §2

[35] = target: TAOK2 (Homo sapiens, UniProt Q9UL54)
Method: as §1, §2

[36] = target: TIE2 (Homo sapiens, UniProt Q02763)
Method: as §1, §2

[37] = target: TNK1 (Homo sapiens, UniProt Q13470)
Method: as §1, §2

[38] = target: TRKA (Homo sapiens, UniProt P04629)
Method: as §1, §2

[39] = target: YES (Homo sapiens, UniProt P07947)
Method: as §1, §2

[40] = target: c-Kit (Homo sapiens, UniProt P10721)
Method: as §1, §2

[41] = target: c-Src (Homo sapiens, UniProt P12931)
Method: as §1, §2

Measured: inhibition at 1 µM

CCN1CCN(c2ccc(Nc3cc(-n4c(Nc5c(Cl)c(OC)cc(OC)c5Cl)nc5ccccc54)ncn3)cc2)CC1 [Example 1, N-(2,6-dichloro-3,5-dimethoxyphenyl)-1-(6-((4-(4-ethylpiperazin-1-yl)phenyl)amino)pyrimidin-4-yl)-1H-benz[d]imidazol-2-amine]
≥ 50%: all assays above
